Earlier results in patent US20080287519A1, “Amorphous eletriptan hydrobromide and process for preparing it and other forms of eletriptan hydrobromide” (priority 2007, published 2008).

Assays:
5-HT1B receptor = 5-HT1B receptor (Homo sapiens, UniProt P28222)
5-HT1D receptor = 5-HT1D receptor (Homo sapiens, UniProt P28221)
5-HT1F receptor = biological target: T1, 5-HT1F receptor (Homo sapiens, UniProt P30939)
T1 sequence (P30939 1-366): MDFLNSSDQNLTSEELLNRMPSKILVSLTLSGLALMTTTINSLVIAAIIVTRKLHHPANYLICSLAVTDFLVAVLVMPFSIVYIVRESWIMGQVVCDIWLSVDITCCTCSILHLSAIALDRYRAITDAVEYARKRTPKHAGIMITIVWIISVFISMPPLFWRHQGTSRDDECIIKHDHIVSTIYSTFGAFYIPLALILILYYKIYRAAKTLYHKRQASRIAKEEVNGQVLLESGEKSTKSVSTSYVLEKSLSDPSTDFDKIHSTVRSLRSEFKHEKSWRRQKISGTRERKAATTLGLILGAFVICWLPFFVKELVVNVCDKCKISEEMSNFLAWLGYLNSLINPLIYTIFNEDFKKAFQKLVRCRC

5-HT1A receptor = biological target: T2, 5-HT1A receptor (Homo sapiens, UniProt P08908)
T2 sequence (P08908 1-422): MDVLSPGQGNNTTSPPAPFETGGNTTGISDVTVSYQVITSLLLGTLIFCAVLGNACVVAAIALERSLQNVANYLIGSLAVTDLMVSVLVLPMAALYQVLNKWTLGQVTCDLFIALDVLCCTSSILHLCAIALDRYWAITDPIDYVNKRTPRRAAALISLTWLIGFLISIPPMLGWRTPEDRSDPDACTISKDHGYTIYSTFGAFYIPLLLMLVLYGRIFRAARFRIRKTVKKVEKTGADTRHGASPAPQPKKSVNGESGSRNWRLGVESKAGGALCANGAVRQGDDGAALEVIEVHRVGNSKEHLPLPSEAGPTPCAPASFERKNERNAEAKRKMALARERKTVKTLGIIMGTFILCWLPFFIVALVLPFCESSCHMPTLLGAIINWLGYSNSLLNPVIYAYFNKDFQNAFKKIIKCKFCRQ

5-HT1E receptor = 5-HT1E receptor (Homo sapiens, UniProt P28566)
5-HT2B receptor = 5-HT2B receptor (Homo sapiens, UniProt P41595)
5-HT7 receptor = 5-HT7 receptor (Homo sapiens, UniProt P34969)
5-HT2A receptor = 5-HT2A receptor (Homo sapiens, UniProt P28223)
5-HT2C receptor = biological target: T3, 5-HT2C receptor (Homo sapiens, UniProt P28335)
T3 sequence (P28335 33-458): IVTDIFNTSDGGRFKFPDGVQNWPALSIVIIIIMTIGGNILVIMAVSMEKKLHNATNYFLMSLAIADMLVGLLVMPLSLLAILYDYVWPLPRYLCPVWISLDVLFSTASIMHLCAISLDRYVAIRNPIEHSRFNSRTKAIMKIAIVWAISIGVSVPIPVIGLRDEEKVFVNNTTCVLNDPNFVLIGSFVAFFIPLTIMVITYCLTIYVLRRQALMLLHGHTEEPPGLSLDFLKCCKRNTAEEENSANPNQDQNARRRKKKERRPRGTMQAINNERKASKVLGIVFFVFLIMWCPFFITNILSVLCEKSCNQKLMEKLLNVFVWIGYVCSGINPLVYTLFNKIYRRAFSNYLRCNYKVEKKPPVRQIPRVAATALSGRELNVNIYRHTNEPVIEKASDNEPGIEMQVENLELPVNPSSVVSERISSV

5-HT4 receptor = 5-HT4 receptor (Homo sapiens, UniProt Q13639)
5-HT5A receptor = 5-HT5A receptor (Homo sapiens, UniProt P47898)
5-HT6 receptor = 5-HT6 receptor (Homo sapiens, UniProt P50406)
[1] = test system: adrenergic alpha1 receptors
[2] = test system: adrenergic alpha2 receptors
[3] = test system: adrenergic beta receptors
[4] = biological target: dopaminergic D1 receptors (Homo sapiens, UniProt P21728)
[5] = biological target: dopaminergic D2 receptors (Homo sapiens, UniProt P14416)
dopaminergic D2 receptors, sequence (P14416 whole entry): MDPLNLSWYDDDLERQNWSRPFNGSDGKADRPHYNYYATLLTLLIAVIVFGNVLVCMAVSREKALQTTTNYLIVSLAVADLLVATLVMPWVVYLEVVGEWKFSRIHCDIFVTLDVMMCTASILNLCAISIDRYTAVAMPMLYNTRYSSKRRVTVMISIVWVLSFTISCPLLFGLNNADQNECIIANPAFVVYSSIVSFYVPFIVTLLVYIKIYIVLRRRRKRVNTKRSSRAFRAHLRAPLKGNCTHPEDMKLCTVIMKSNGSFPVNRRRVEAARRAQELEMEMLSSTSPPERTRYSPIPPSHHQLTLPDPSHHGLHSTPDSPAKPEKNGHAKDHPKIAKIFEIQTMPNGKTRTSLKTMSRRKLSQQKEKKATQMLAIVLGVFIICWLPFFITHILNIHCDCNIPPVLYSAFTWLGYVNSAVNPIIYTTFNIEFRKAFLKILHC

5-HT2A receptor, sequence (P28223 whole entry): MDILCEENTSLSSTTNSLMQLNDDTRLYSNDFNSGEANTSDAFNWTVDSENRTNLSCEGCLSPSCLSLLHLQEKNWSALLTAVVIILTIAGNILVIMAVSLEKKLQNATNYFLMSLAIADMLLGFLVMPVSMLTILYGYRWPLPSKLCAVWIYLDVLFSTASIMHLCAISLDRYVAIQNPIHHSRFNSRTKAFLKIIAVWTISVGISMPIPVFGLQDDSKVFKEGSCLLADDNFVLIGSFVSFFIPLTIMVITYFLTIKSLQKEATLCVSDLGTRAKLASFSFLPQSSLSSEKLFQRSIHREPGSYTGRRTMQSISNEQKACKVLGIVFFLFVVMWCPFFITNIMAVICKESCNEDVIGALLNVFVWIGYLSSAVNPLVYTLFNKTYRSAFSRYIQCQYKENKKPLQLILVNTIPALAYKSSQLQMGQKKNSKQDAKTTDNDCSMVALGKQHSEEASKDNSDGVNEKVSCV
5-HT1E receptor, sequence (P28566 whole entry): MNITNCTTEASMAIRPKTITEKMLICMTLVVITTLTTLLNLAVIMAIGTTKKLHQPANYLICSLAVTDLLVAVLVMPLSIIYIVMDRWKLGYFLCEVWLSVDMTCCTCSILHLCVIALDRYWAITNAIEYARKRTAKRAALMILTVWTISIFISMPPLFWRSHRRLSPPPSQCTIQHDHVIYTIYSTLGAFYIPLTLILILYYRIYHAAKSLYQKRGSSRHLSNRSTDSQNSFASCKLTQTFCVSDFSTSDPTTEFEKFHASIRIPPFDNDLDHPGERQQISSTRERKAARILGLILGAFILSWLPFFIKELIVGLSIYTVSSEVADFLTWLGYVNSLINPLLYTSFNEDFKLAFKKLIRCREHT
5-HT4 receptor, sequence (Q13639 whole entry): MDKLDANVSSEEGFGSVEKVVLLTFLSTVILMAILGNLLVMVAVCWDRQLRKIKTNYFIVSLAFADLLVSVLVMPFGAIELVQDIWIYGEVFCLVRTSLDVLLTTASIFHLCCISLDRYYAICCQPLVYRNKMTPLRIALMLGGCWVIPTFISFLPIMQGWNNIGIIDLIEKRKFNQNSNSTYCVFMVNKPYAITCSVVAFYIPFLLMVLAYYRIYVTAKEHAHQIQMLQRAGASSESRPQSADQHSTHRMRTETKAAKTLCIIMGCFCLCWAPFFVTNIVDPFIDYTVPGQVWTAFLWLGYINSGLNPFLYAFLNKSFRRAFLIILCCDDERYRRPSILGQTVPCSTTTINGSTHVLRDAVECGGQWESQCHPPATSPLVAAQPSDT
5-HT2B receptor, sequence (P41595 whole entry): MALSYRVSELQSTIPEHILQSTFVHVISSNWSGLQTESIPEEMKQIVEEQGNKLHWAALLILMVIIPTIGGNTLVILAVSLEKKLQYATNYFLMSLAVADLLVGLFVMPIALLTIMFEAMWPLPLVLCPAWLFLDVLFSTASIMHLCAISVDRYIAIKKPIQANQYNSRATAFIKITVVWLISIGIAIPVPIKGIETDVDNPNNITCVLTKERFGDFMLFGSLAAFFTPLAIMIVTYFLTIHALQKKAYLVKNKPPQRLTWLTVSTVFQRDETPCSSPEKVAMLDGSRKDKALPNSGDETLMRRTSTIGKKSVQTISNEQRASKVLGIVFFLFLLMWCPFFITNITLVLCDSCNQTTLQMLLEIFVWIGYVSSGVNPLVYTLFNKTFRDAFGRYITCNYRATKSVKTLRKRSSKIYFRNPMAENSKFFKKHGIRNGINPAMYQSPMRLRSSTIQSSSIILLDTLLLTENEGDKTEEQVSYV
dopaminergic D1 receptors, sequence (P21728 whole entry): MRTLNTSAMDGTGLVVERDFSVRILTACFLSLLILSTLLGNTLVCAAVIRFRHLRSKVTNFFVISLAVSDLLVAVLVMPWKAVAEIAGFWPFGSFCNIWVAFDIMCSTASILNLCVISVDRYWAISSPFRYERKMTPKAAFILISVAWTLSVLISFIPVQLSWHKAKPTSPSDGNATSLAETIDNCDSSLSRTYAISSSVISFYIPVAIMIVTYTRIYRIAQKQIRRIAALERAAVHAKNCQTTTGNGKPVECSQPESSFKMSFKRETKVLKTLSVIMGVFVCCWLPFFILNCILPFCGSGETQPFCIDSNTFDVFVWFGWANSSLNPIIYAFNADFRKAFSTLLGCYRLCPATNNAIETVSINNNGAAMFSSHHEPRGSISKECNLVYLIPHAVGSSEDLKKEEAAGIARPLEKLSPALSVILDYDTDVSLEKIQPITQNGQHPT
5-HT7 receptor, sequence (P34969 whole entry): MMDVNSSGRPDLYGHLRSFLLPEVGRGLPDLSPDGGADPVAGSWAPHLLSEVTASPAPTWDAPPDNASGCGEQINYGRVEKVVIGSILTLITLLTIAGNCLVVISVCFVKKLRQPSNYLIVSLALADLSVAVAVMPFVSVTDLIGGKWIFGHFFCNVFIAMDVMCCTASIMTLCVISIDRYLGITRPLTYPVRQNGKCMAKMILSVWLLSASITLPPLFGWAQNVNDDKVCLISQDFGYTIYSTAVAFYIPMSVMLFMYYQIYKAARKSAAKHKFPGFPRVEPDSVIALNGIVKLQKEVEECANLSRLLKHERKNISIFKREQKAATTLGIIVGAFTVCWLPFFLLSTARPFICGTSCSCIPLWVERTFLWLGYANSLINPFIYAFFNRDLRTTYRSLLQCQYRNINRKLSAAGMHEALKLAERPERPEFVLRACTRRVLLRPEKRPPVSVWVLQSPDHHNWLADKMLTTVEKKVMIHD
5-HT1B receptor, sequence (P28222 whole entry): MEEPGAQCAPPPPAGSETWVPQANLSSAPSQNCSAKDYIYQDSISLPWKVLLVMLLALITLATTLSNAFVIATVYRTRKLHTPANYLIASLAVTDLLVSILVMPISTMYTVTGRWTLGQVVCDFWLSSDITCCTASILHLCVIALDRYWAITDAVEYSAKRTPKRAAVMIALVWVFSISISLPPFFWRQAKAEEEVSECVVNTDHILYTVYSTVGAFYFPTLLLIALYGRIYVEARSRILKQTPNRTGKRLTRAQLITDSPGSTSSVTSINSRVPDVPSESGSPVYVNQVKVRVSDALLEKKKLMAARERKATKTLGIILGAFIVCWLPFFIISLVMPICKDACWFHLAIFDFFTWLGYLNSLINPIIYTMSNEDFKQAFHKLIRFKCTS
5-HT5A receptor, sequence (P47898 whole entry): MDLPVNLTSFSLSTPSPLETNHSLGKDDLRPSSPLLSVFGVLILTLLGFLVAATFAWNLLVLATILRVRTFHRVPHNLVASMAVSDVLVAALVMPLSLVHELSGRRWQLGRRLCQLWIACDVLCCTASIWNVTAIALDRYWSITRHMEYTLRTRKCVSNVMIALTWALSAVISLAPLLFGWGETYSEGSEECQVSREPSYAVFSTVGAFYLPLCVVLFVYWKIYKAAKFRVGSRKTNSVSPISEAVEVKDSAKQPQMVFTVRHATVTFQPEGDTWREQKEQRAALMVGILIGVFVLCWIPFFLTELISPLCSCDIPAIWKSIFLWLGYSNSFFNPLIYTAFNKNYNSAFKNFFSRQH
5-HT1D receptor, sequence (P28221 whole entry): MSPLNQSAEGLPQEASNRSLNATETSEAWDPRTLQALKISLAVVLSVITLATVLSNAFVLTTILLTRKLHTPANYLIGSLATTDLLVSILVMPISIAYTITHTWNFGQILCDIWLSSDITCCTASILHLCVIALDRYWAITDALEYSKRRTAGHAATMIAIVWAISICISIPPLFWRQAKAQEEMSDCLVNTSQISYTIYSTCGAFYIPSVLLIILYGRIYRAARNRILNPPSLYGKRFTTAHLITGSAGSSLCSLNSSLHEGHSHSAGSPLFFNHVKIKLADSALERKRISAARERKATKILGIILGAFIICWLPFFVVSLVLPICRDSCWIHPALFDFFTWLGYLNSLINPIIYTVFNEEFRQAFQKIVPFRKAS
5-HT6 receptor, sequence (P50406 whole entry): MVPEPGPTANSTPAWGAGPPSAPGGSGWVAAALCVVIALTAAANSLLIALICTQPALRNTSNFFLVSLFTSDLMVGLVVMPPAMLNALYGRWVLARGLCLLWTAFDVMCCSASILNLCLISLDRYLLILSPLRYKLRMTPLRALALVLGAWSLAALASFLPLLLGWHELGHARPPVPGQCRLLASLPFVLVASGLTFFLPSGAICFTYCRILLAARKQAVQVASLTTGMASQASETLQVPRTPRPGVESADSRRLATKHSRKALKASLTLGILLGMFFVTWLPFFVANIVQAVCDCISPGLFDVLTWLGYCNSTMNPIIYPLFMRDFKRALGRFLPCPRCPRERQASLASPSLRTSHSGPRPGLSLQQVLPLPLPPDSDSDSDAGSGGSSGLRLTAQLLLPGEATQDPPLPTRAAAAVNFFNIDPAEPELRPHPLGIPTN

SMILES: CN1CCC[C@@H]1Cc1c[nH]c2ccc(CCS(=O)(=O)c3ccccc3)cc12 [Eletriptan, 3-(N-methyl-2(R)-pyrrolidinylmethyl)-5-(2-phenylsulphonylethyl)-1H-indole]
- affinity (5-HT1B receptor): high affinity
- affinity (5-HT1D receptor): high affinity
- affinity (5-HT1F receptor): high affinity
- affinity (5-HT1A receptor): modest affinity
- affinity (5-HT1E receptor): modest affinity
- affinity (5-HT2B receptor): modest affinity
- affinity (5-HT7 receptor): modest affinity
- affinity (5-HT2A receptor): little or no affinity
- affinity (5-HT2C receptor): little or no affinity
- affinity (5-HT3 receptor): little or no affinity
- affinity (5-HT4 receptor): little or no affinity
- affinity (5-HT5A receptor): little or no affinity
- affinity (5-HT6 receptor): little or no affinity
- affinity or pharmacological activity [1]: no significant affinity or pharmacological activity
- affinity or pharmacological activity [2]: no significant affinity or pharmacological activity
- affinity or pharmacological activity [3]: no significant affinity or pharmacological activity
- affinity or pharmacological activity [4]: no significant affinity or pharmacological activity
- affinity or pharmacological activity [5]: no significant affinity or pharmacological activity
- affinity or pharmacological activity (muscarinic receptors): no significant affinity or pharmacological activity
- affinity or pharmacological activity (opioid receptors): no significant affinity or pharmacological activity
